Assay results taken from patent publication US20060069132A1, “Azolecarboxamide herbicides” (priority 2004, published 2006).

Experiments:
woolly cupgrass = test: Test C pre-/postemergence herbicide test; assay type: in vivo, Eriochloa villosa; conditions: preemergence
Summary of the method: (§1)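 Visual ratings on a 0–100 scale (100 = complete control) made versus untreated controls after 12 to 14 greenhouse days. Test chemicals, formulated in surfactant-containing non-phytotoxic solvent, applied preemergence to planted seeds or postemergence to 1- to 4-leaf plants (2 to 18 cm).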

velvetleaf = test: Test A pre-/postemergence herbicide test; assay type: in vivo, Abutilon theophrasti
Summary of the method: (§2)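 Visual injury scores on a 0–100 scale (100 = complete control) taken about ten days post-treatment in greenhouse against untreated controls; dash means no result. Treatments: preemergence soil spray and postemergence spray to runoff on one- to two-leaf plants 2 to 10 cm tall, surfactant-containing formulation.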

goosegrass = test: Test C pre-/postemergence herbicide test; assay type: in vivo, Eleusine indica; conditions: preemergence
Summary of the method: as §1

yellow nutsedge = test: Test C pre-/postemergence herbicide test; assay type: in vivo, Cyperus esculentus; conditions: preemergence
Summary of the method: as §1

morningglory = test: Test C pre-/postemergence herbicide test; assay type: in vivo, Ipomoea coccinea; design: key to Plant response rating, Morningglory: 0 = no effect, 100 = complete control; conditions: preemergence
Summary of the method: as §1

barnyardgrass = test: Test C flooded paddy test; assay type: in vivo, Echinochloa crus-galli
Summary of the method: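 After a postemergence application at 1 to 4 leaves (plants 2–18 cm high), or at 2 leaves for barnyardgrass in flooded paddy, plants stayed in the greenhouse for 12 to 14 days. Damage was then judged visually relative to control plants, with 100 indicating complete control.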

giant foxtail = test: Test A pre-/postemergence herbicide test; assay type: in vivo, Setaria faberi
Summary of the method: as §2

corn = test: Test C pre-/postemergence herbicide test; assay type: in vivo, Zea mays; conditions: preemergence
Summary of the method: as §1

Surinam grass = test: Test C pre-/postemergence herbicide test; assay type: in vivo, Urochloa decumbens; conditions: preemergence
Summary of the method: as §1

[1] = system: smallflower umbrella sedge; test: Test C flooded paddy test; assay type: in vivo, Cyperus difformis
lambsquarters = test: Test C pre-/postemergence herbicide test; assay type: in vivo, Chenopodium album; conditions: preemergence
Summary of the method: as §1

soybean = test: Test C pre-/postemergence herbicide test; assay type: in vivo, Glycine max; conditions: preemergence
Summary of the method: as §1

pigweed = test: Test C pre-/postemergence herbicide test; assay type: in vivo, Amaranthus retroflexus; conditions: preemergence
Summary of the method: as §1

kochia = test: Test C pre-/postemergence herbicide test; assay type: in vivo, Kochia scoparia; conditions: preemergence
Summary of the method: as §1

[2] = 125 g ai/ha, scale 0 (no effect) to 100 (complete control), visual, 12 to 14 days
[3] = 500 g ai/ha, scale 0 to 100 (0 no effect, 100 complete control), visual, 12 to 14 days
[4] = Postemergence, 500 g ai/ha, 0 to 100 scale, 0 no effect, 100 complete control
[5] = Postemergence, 2000 g ai/ha, 0 to 100 scale, 0 no effect, 100 complete control
[6] = Preemergence, 2000 g ai/ha, visual rating, 0 to 100 scale (0 no effect, 100 complete control)
[7] = preemergence, 500 g ai/ha, visual injury, 0 to 100 scale (0 no effect, 100 complete control)
[8] = 62 g ai/ha, scale 0 to 100 (0 no effect, 100 complete control)
[9] = 125 g ai/ha, scale 0 to 100 (0 no effect, 100 complete control)
[10] = 250 g ai/ha, scale of 0 to 100, 0 is no effect, 100 is complete control
[11] = 500 g ai/ha, visual rating after 12 to 14 days, scale 0 to 100 (0 no effect, 100 complete control)

For `CCc1nn(C(C)(C)C)cc1C(=O)Nc1cc(C(=O)N(CC)CC)ccc1F` [Compound 223], which “Plant response rating, Cupgrass, Woolly” value (woolly cupgrass; 62 g ai/ha, scale 0 to 100) is on record?
The value was 0.

What about the “Plant response rating, Cupgrass, Woolly” value (woolly cupgrass; [2]) of the same compound?
Its value is 10.

And the “Plant response rating, Cupgrass, Woolly” value (woolly cupgrass; [3])?
The value was 80.

And the “Velvetleaf plant response rating” value (velvetleaf; [4])?
Its value is 40.

And the “Plant response rating, Velvetleaf” value (velvetleaf; [5])?
The value was 35.

What about the “Velvetleaf plant response rating” value (velvetleaf; [6]) of the same compound?
The value was 85.

And the “Velvetleaf plant response rating” value (velvetleaf; [7])?
Its value is 55.

And the “Plant response rating, Goosegrass” value (goosegrass; 62 g ai/ha, scale 0 to 100)?
Its value is 60.

What about the “Plant response rating, Goosegrass” value (goosegrass; [2]) of the same compound?
The value was 80.

What about the “Plant response rating, Goosegrass” value (goosegrass; 250 g ai/ha, scale 0-100) of the same compound?
Its value is 80.

What about the “Plant response rating, Goosegrass” value (goosegrass; [3]) of the same compound?
The value was 100.

And the “Plant response rating, Nutsedge, Yellow” value (yellow nutsedge; 62 g ai/ha, scale 0 to 100)?
Its value is 0.

What about the “Plant response rating, Nutsedge, Yellow” value (yellow nutsedge; [2]) of the same compound?
Its value is 0.

And the “Plant response rating, Nutsedge, Yellow” value (yellow nutsedge; 250 g ai/ha, scale 0-100)?
Its value is 0.

What about the “Plant response rating, Nutsedge, Yellow” value (yellow nutsedge; [3]) of the same compound?
The value was 0.

And the “Plant response rating, Morningglory” value (morningglory; 62 g ai/ha, scale 0 to 100)?
Its value is 0.

And the “Plant response rating, Morningglory” value (morningglory; [2])?
The value was 0.

What about the “Plant response rating, Morningglory” value (morningglory; 250 g ai/ha, scale 0-100) of the same compound?
The value was 5.

And the “Plant response rating, Morningglory” value (morningglory; [3])?
Its value is 100.

And the “Barnyardgrass plant response rating” value (barnyardgrass; [8])?
Its value is 0.

And the “Barnyardgrass plant response rating” value (barnyardgrass; [9])?
Its value is 0.

And the “Barnyardgrass plant response rating” value (barnyardgrass; [10])?
The value was 0.

And the “Plant response rating, Barnyardgrass” value (barnyardgrass; [11])?
The value was 45.

And the “Foxtail, Giant plant response rating” value (giant foxtail; [4])?
Its value is 10.

What about the “Plant response rating, Foxtail, Giant” value (giant foxtail; [5]) of the same compound?
The value was 10.

What about the “Foxtail, Giant plant response rating” value (giant foxtail; [6]) of the same compound?
The value was 90.

What about the “Foxtail, Giant plant response rating” value (giant foxtail; [7]) of the same compound?
The value was 75.

What about the “Plant response rating, Corn” value (corn; 62 g ai/ha, scale 0 to 100) of the same compound?
Its value is 0.

And the “Plant response rating, Corn” value (corn; [2])?
Its value is 0.

What about the “Plant response rating, Corn” value (corn; 250 g ai/ha, scale 0-100) of the same compound?
Its value is 5.

What about the “Plant response rating, Corn” value (corn; [3]) of the same compound?
The value was 50.

And the “Plant response rating, Surinam Grass” value (Surinam grass; 62 g ai/ha, scale 0 to 100)?
The value was 50.

What about the “Plant response rating, Surinam Grass” value (Surinam grass; 250 g ai/ha, scale 0-100) of the same compound?
Its value is 70.

And the “Plant response rating, Surinam Grass” value (Surinam grass; [3])?
The value was 85.

What about the “Sedge, Umbrella plant response rating” value [1, 8] of the same compound?
The value was 0.

And the “Sedge, Umbrella plant response rating” value [1, 9]?
Its value is 0.

What about the “Sedge, Umbrella plant response rating” value [1, 10] of the same compound?
Its value is 65.

And the “Plant response rating, Sedge, Umbrella” value [1, 11]?
The value was 85.

What about the “Plant response rating, Lambsquarters” value (lambsquarters; 62 g ai/ha, scale 0 to 100) of the same compound?
The value was 95.

And the “Plant response rating, Lambsquarters” value (lambsquarters; [2])?
Its value is 100.

And the “Plant response rating, Lambsquarters” value (lambsquarters; 250 g ai/ha, scale 0-100)?
Its value is 100.

And the “Plant response rating, Lambsquarters” value (lambsquarters; [3])?
The value was 100.

What about the “Plant response rating, Soybean” value (soybean; 62 g ai/ha, scale 0 to 100) of the same compound?
Its value is 0.

What about the “Plant response rating, Soybean” value (soybean; 250 g ai/ha, scale 0-100) of the same compound?
Its value is 80.

And the “Plant response rating, Soybean” value (soybean; [3])?
The value was 90.

And the “Plant response rating, Pigweed” value (pigweed; 62 g ai/ha, scale 0 to 100)?
The value was 100.

What about the “Plant response rating, Pigweed” value (pigweed; [2]) of the same compound?
Its value is 100.

And the “Plant response rating, Pigweed” value (pigweed; 250 g ai/ha, scale 0-100)?
Its value is 100.

What about the “Plant response rating, Pigweed” value (pigweed; [3]) of the same compound?
Its value is 100.

What about the “Plant response rating, Kochia” value (kochia; 62 g ai/ha, scale 0 to 100) of the same compound?
Its value is 85.

And the “Plant response rating, Kochia” value (kochia; [2])?
Its value is 90.

What about the “Plant response rating, Kochia” value (kochia; 250 g ai/ha, scale 0-100) of the same compound?
The value was 100.

And the “Plant response rating, Kochia” value (kochia; [3])?
Its value is 100.
